Measured values as given in patent publication US11299487B2, “Compounds and compositions as modulators of TLR signaling” (Neuropore Therapies, Inc., priority 2019, dated 2022).

Assays:
Type in all cases: cell-based
human TLR2 [1] = target: T1, human TLR2 (Homo sapiens, UniProt O60603); experiment: HEK-Blue hTLR2 antagonism assay (SEAP reporter) with agonist Pam3CSK4 (TLR1/2 agonist); details: Table B; HEK-Blue hTLR2 cells, ~3×EC50 Pam3CSK4, 18 h, SEAP OD 655 nm, 8-point dilutions
T1 construct: host or cells: HEK-Blue hTLR2 (HEK-293)
T1 sequence (O60603 21-784): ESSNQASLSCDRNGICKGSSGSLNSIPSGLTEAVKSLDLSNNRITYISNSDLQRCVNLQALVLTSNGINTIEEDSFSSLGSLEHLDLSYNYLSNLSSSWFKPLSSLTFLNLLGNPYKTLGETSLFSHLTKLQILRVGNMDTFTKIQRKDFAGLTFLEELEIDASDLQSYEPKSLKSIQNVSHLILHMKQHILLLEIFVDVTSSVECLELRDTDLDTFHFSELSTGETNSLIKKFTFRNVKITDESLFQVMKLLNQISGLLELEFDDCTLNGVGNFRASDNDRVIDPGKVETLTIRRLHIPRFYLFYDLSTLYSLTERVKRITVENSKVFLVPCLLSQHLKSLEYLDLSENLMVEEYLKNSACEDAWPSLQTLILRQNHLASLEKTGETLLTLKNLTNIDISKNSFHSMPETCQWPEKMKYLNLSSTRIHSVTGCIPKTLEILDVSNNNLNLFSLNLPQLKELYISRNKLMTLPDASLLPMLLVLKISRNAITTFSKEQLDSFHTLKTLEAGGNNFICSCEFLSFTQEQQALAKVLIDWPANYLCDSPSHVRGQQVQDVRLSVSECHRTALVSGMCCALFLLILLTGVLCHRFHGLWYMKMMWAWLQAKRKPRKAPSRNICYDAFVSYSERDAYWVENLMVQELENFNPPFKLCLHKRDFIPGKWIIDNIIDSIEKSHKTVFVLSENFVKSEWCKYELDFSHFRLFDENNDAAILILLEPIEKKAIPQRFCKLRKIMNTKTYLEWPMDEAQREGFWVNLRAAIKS

human TLR9 = target: T2, human TLR9 (Homo sapiens, UniProt Q9NR96); experiment: HEK-Blue hTLR9 assay (SEAP reporter) with agonist ODN 2006; details: Table B; HEK-Blue hTLR9 cells, ~3×EC50 ODN 2006, 18 h; exact values 8-point dilutions, approximate (~ or <) 4-point dilutions; read-out: ~IC50 (μM) with ODN2006
T2 construct: host or cells: HEK-Blue hTLR9 (HEK-293)
T2 sequence (Q9NR96 26-1032): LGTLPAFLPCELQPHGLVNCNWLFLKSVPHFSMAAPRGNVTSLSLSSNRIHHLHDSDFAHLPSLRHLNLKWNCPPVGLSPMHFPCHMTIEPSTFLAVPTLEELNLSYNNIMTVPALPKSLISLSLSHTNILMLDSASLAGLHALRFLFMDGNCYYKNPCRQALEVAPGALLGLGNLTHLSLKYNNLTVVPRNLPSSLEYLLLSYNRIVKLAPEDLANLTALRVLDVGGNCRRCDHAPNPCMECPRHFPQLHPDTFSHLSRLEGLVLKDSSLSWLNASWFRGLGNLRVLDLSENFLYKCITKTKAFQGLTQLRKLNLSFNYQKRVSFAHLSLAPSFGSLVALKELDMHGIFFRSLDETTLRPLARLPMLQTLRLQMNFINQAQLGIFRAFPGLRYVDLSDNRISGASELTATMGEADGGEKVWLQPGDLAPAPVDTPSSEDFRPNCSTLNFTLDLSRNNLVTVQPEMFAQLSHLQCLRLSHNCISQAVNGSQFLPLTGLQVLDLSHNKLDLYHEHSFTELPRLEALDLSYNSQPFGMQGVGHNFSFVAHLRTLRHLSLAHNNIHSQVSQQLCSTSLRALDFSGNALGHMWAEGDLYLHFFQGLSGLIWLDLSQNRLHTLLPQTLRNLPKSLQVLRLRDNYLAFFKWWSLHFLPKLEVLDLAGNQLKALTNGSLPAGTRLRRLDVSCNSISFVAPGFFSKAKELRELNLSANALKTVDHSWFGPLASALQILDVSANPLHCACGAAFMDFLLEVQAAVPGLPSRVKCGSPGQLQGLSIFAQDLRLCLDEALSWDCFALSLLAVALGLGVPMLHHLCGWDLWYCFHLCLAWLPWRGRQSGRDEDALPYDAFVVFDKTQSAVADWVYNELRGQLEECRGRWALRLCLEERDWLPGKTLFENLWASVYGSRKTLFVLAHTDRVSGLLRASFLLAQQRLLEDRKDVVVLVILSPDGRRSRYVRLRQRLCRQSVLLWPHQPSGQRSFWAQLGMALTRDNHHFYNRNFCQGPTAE
Protocol: Synthetic ODNs (ODN 2006 (ODN7909), class B CpG oligonucleotide, TLR9 agonist) was obtained from InvivoGen and was dissolved in endotoxin-free water to a concentration 500 μM, vortexed until complete solubilization, and stored in aliquots at −20° C. Prior to addition to cells, an aliquot of the dissolved ligand was vortexed shortly and then was diluted in medium to 50 μM. The EC50 of the agonist for each assay run was determined by using 3-fold dilutions from the starting concentration 10 μM.
Test compounds were solubilized fresh to 10-20 mM stocks in DMSO and sonicated for 5-10 minutes in a water bath sonicator. Serial dilutions were prepared in DMSO, and then diluted in medium. The final concentration of DMSO used in the assay was 1%.
HEK-Blue hTLR9 reporter cells (InvivoGen) are HEK-293 cells stably expressing both the human TLR9 gene and a secreted embryonic alkaline phosphatase (SEAP) reporter construct downstream of NFκB promotor sites. HEK-Blue hTLR9 cells were cultured according to manufacturer's protocol using Dulbecco's Modified Eagle Medium (DMEM; Gibco) containing 1× GlutaMax (Gibco), 10% heat-inactivated Fetal Bovine Serum (Gibco), Pen-Strep (50 U/mL penicillin, 50 μg/mL streptomycin, Gibco), 100 μg/mL Normocin (InvivoGen), and the selective antibiotics, 10 μg/mL Blasticidin (InvivoGen), and 100 μg/mL Zeocin (InvivoGen). Quanti-Blue reagent (InvivoGen) for detection and quantification of secreted alkaline phosphatase was dissolved in 100 mL of endotoxin-free water, warmed to 37° C. for 30 minutes and then filtered using a 0.2 μm membrane.
On day 1, 50 μL of each test compound dilution in duplicates or a vehicle control was added to each well of a 96-well plate followed by addition of 150 μL of HEK-Blue hTLR9 cell suspension (1×10^5 cells/well) and incubated at 37° C./5% CO2 for 2 h. Next, 50 μL of an approximate 3×EC50 concentration of TLR9 agonist, ODN 2006, was added to the wells containing test compounds or the vehicle control. The plates were then incubated at 37° C./5% CO2 for 18 h. For each assay run, vehicle-treated HEK-Blue hTLR9 cells were treated with serial dilutions of agonist to determine EC50 values for the respective run.
On day 2, secreted alkaline phosphatase (SEAP) activity was detected in cell culture supernatants. In brief, 30 μL was collected from each well and transferred to a 96-well plate. Next, 200 μL of Quanti-Blue detection reagent was added to each well. Plates were incubated at 37° C. for 60 min. and SEAP activity was assessed by spectrophotometer OD reading at 655 nm. Table A and Table B show the activities of the compounds tested in HEK-Blue hTLR9 cells against ODN 2006. The activities of the compounds against ODN 2006 are presented as IC50 values which were defined as concentrations of the compounds where percent inhibition of the signal induced by agonist is equal to 50. Exact IC50 values were calculated based on 8-point dilutions for each compound. Approximate IC50 values (˜ or <) were calculated based on 4-point dilutions for each compound.

human TLR2 [2] = target: T1, human TLR2; experiment: HEK-Blue hTLR2 antagonism assay (SEAP reporter) with agonist Pam2CSK4 (TLR2/6 agonist); details: Table B; HEK-Blue hTLR2 cells, ~3×EC50 Pam2CSK4, 18 h, SEAP OD 655 nm, 8-point dilutions

Row | SMILES | IC50 (human TLR2 [1]) [µM] | IC50 (human TLR9) [µM] | IC50 (human TLR2 [2]) [µM]
1 | O=Cc1cc(C(=O)Nc2ccc(N3CC4CC4C3)cc2)cc(F)c1O (stereo not drawn) [Compound B74, N-(4-(3-azabicyclo[3.1.0]hexan-3-yl)phenyl)-3-fluoro-5-formyl-4-hydroxybenzamide] | 0.8 | < 1.2 | 1.6
2 | O=Cc1cc(C(=O)Nc2ccc(N3C[C@H]4COC[C@H]4C3)cc2)cc(F)c1O [Compound B75, 3-fluoro-5-formyl-4-hydroxy-N-(4-((3aR,6aS)-tetrahydro-1H-furo[3,4-c]pyrrol-5(3H)-yl)phenyl)benzamide] | 6 | ~4.7 | 13
3 | O=Cc1cc(C(=O)Nc2ccc(N3C[C@H]4CCC[C@H]4C3)cc2)cc(F)c1O [Compound B76, 3-fluoro-5-formyl-N-(4-((3aR,6aS)-hexahydrocyclopenta[c]pyrrol-2(1H)-yl)phenyl)-4-hydroxybenzamide] | 0.6 | < 1.2 | 1.2
4 | CC1(C)CN(c2ccc(NC(=O)c3cc(F)c(O)c(C=O)c3)cn2)c2ccccc21 [Compound B87, N-(6-(3,3-dimethylindolin-1-yl)pyridin-3-yl)-3-fluoro-5-formyl-4-hydroxybenzamide] | 0.4 | 0.1 | 0.5

Compounds with a lower IC50 (human TLR2 [1]), results first:

Row | IC50 (human TLR2 [1]) [µM] | IC50 (human TLR9) [µM] | IC50 (human TLR2 [2]) [µM] | SMILES
5 | 0.3 | 0.3 | 0.6 | CC1(C)CCN(c2ccc(NC(=O)c3cc(F)c(O)c(C=O)c3)cc2)C1 [Compound B73, N-(4-(3,3-dimethylpyrrolidin-1-yl)phenyl)-3-fluoro-5-formyl-4-hydroxybenzamide]
6 | 0.3 | < 1.2 | 0.6 | O=Cc1cc(C(=O)Nc2ccc(N3CC4(CCC4)C3)cc2)cc(F)c1O [Compound B77, N-(4-(2-azaspiro[3.3]heptan-2-yl)phenyl)-3-fluoro-5-formyl-4-hydroxybenzamide]
